We go through 18 molecules from ChEMBL document CHEMBL1153489, “Benzothiophene inhibitors of MK2. Part 1: structure-activity relationships, assessments of selectivity and cellular potency” (Bioorg Med Chem Lett, 2009).

Assay [1] concerns the target T1, MAP kinase-activated protein kinase 2 (Homo sapiens, UniProt P49137). The assay can be described thus: Inhibition of MK2.
The target in assay [2] is T1, MAP kinase-activated protein kinase 2. Briefly: Inhibition of MK2 in human U937 cells assessed as blockade of LPS-stimulated TNFalpha production. In kind it is cell-based, U-937.
Assay [3] has as its target Mitogen-activated protein kinase 9 (Homo sapiens) (UniProt P45984). Briefly: Inhibition of JNK2 phosphorylation in LPS-stimulated human U937 cells. In kind it is cell-based. The following applies: U-937.
The target of assay [4] is MAP kinase p38 (Homo sapiens) (UniProt O15264+Q15759+Q16539+P53778). The assay can be described thus: Inhibition of p38 phosphorylation in LPS-stimulated human U937 cells. In kind it is cell-based. The following applies: U-937.

Calls of active or inactive are those of the source. The calls are words filed in the database; no cut-off is given here. A value given as a limit tells only on which side of the number the result lay.

T1 sequence (P49137 whole entry): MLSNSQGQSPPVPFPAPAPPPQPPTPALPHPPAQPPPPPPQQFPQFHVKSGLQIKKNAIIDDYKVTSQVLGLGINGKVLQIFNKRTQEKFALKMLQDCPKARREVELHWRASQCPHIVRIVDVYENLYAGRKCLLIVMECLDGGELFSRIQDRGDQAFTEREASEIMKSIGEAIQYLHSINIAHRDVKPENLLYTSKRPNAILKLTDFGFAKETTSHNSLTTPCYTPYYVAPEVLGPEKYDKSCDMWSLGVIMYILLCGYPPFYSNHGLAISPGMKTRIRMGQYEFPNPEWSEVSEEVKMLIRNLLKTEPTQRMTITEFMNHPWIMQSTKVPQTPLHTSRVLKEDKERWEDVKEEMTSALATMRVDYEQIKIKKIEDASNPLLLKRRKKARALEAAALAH
Chain of Mitogen-activated protein kinase 9 (Homo sapiens) (P45984 whole entry, looked up): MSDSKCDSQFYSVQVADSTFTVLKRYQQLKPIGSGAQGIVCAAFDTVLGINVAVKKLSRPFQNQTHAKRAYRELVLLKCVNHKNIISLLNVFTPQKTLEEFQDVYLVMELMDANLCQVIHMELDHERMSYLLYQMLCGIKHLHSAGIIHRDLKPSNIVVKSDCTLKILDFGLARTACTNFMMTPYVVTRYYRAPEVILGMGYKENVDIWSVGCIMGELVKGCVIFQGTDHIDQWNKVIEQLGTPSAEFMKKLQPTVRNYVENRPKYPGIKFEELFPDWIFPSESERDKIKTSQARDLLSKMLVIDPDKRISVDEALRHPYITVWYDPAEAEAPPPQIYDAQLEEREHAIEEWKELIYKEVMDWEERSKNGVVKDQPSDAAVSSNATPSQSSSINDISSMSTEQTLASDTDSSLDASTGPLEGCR

`COc1ccc2sc3c(c2c1)NC[C@@H](CNCc1ccccc1)NC3=O`: the IC50 in assay [1] amounted to 570 nM; in assay [2], 21000 nM.

Turning to `COc1ccc2sc3c(c2c1)NC[C@@H](CO)NC3=O`, the outcome in assay [3] and in assay [4] was inactive. The figures for the IC50 in assay [1] and in assay [2] were 14 nM and 400 nM, respectively.

`COc1ccc2sc3c(c2c1)NCCNC3=O`: the IC50 worked out at 180 nM in assay [1] and 1400 nM in assay [2].

With `C[C@@H]1CNc2c(sc3ccc(O)cc23)C(=O)N1`, the IC50 in assay [1] was 190 nM; in assay [2] it was 3500 nM.

As to `COc1ccc2sc3c(c2c1)NC[C@@H](CN1CCCC1)NC3=O`, in assay [1], the IC50 is over 20000 nM.

In the case of `COc1ccc2sc3c(c2c1)CCCNC3=O`, the IC50 in assay [1] came out at 500 nM; in assay [2] it was 4700 nM.

Turning to `COc1cccc(COc2ccc3sc4c(c3c2)NC[C@@H](C)NC4=O)c1`, the IC50 stood at 110 nM in assay [1] and 4600 nM in assay [2].

In the case of `CCC[C@@H]1CNc2c(sc3ccc(OC)cc23)C(=O)N1`, the results for the IC50 in assay [1] and in assay [2] were 1520 nM and 5450 nM, respectively.

As for `CCNC[C@@H]1CNc2c(sc3ccc(OC)cc23)C(=O)N1`, the IC50 in assay [1] was determined as 570 nM; in assay [2], 21600 nM.

In the case of `COc1ccc2sc3c(c2c1)SCCNC3=O`, the IC50 amounted to 1090 nM in assay [1] and 5500 nM in assay [2].

Take `CCCNC[C@@H]1CNc2c(sc3ccc(OC)cc23)C(=O)N1`: the results for the IC50 in assay [1] and in assay [2] were 450 nM and 14900 nM, respectively.

`C[C@@H]1CNc2c(sc3ccc(OCC4CC4)cc23)C(=O)N1`: the IC50 in assay [1] is 1320 nM; in assay [2], 27000 nM.

Take `COCCOc1ccc2sc3c(c2c1)NC[C@@H](C)NC3=O`: the results for the IC50 in assay [1] and in assay [2] were 270 nM and 3100 nM, respectively.

For the molecule `CC(C)COc1ccc2sc3c(c2c1)NC[C@@H](C)NC3=O`, the results for the IC50 in assay [1] and in assay [2] were 30 nM and 1800 nM, respectively.

For `COC(=O)COc1ccc2sc3c(c2c1)NC[C@@H](C)NC3=O`, the values for the IC50 in assay [1] and in assay [2] were 3440 nM and 78000 nM, respectively.

`COc1ccc2sc3c(c2c1)NC[C@@H](CN(C)Cc1ccccc1)NC3=O`: the IC50 turned out to be 1910 nM in assay [1] and 24000 nM in assay [2].

On to `COc1ccc2sc3c(c2c1)NC[C@@H](CN)NC3=O`, for which the figures for the IC50 in assay [1] and in assay [2] were 5 nM and 2600 nM, respectively.

In turn, `COc1ccc2sc3c(c2c1)NC[C@@H](CN1CCOCC1)NC3=O` came in with an IC50 in assay [1] of over 20000 nM.
